Reference: US20210122730A1, “GLUCOCORTICOID RECEPTOR MODULATORS” (ORIC Pharmaceuticals, Inc., priority 2017, published 2021)

Columns and labels:
[1] = target: T1, CYP2C8 (Homo sapiens, UniProt P10632); assay: CYP Inhibition Assay (CYP2C8, human liver microsomes, paclitaxel substrate); type: in vitro ADME; settings: pH 7.4; pooled human liver microsomes 0.1 mg/mL, probe substrate paclitaxel
T1 construct: Pooled human microsomes were obtained from Sekisui XenoTech, KS; tissue Sekisui XenoTech, KS; host or cells: pooled human liver microsomes
T1 sequence (P10632 1-490): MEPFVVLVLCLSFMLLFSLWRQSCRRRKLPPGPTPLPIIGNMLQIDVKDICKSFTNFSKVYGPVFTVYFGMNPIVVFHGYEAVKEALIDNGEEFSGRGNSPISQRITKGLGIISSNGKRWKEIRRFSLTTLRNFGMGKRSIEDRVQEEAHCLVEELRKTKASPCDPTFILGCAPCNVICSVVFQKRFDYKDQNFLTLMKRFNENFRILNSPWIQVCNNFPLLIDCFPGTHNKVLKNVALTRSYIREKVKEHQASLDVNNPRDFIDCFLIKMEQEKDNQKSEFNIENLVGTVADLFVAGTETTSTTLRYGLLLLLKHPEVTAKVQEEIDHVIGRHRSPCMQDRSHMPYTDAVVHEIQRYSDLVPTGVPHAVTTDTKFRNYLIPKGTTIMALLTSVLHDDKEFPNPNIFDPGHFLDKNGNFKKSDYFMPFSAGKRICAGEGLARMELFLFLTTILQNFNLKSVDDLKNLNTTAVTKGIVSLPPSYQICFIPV
In short: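 CYP2C8 activity read as 6α-hydroxypaclitaxel formation by LC-MS/MS, with % inhibition versus vehicle control. Reactions ran 5 min at 37° C, pH 7.4 phosphate buffer, 0.1 mg/mL pooled human liver microsomes, 1 mM NADPH, duplicate wells.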

[2] = target: T2, GR (Homo sapiens, UniProt P04150); assay: In Vitro GR Luciferase Reporter Assay (antagonist mode, CHO-K1-GR-MMTV-Luc reporter cells); type: cell-based; settings: antagonist mode, 10 nM Dexamethasone
T2 construct: expressed in transfected cells; host or cells: CHO-K1
T2 sequence (P04150 1-777): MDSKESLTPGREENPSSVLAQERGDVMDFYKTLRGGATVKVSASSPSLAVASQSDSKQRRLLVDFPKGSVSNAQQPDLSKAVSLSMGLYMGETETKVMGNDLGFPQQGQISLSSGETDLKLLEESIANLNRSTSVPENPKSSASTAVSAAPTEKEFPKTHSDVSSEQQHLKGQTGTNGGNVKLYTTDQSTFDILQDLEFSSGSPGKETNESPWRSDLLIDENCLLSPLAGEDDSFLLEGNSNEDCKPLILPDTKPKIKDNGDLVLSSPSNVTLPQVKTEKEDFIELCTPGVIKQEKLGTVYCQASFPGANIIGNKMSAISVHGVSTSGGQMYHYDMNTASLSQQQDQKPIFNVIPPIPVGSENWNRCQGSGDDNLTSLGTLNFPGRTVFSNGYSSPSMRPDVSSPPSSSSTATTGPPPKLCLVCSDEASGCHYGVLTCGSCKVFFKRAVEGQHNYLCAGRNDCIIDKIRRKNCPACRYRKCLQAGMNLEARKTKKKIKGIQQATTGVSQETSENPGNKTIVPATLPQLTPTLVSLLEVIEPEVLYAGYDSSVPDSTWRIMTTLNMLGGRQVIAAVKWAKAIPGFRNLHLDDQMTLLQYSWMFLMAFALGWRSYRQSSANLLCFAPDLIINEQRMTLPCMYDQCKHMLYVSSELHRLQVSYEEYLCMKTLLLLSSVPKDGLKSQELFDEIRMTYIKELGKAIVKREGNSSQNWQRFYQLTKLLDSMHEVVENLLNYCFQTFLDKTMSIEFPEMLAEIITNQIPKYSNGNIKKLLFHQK
In short: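 Antagonist mode: compounds (8 serial 1:5 dilutions) added to GR-MMTV-luciferase CHO-K1 reporter cells co-exposed to 10 nM dexamethasone final, in phenol red-free DMEM plus 10% CSS. After roughly 18-24 h at 37° C, OneGlo luminescence read and IC50 calculated.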

With `Cn1cc(S(=O)(=O)N(C2CC2)[C@H]2CCC3=Cc4c(cnn4-c4ccc(F)cc4)C[C@]3(C(=O)c3ncc(C(F)(F)F)s3)C2)nn1` [Example 219, N-cyclopropyl-N-((4aS,6S)-1-(4-fluorophenyl)-4a-(5 (trifluoromethyl)thiazole-2-carbonyl)-4,4a,5,6,7,8-hexahydro-1H-benzo[f]indazol-6-yl)-1-methyl-1H-1,2,3-triazole-4-sulfonamide] the inhibition at 5 min [1] was 25 to 50% and the IC50 [2] was ≤ 100 nM.

With `CC(C)N([C@H]1CCC2=Cc3c(cnn3-c3ccc(F)cc3)C[C@]2(C(=O)c2cc(C(F)(F)F)ccn2)C1)S(=O)(=O)c1cn(C)cn1` [Example 221, N-((4aS,6S)-1-(4-fluorophenyl)-4a-(4-(trifluoromethyl)picolinoyl)-4,4a,5,6,7,8-hexahydro-1H-benzo[f]indazol-6-yl)-N-isopropyl-1-methyl-1H-imidazole-4-sulfonamide] the inhibition at 5 min [1] was 50 to 75% and the IC50 [2] was ≤ 100 nM.

`Cn1cc(S(=O)(=O)N(C2CC2)[C@H]2CCC3=Cc4c(cnn4-c4ccc(F)cc4)C[C@]3(C(=O)c3cc(C(F)(F)F)ccn3)C2)nn1` [Example 222, N-cyclopropyl-N-((4aS,6S)-1-(4-fluorophenyl)-4a-(4-(trifluoromethyl)picolinoyl)-4,4a,5,6,7,8-hexahydro-1H-benzo[f]indazol-6-yl)-1-methyl-1H-1,2,3-triazole-4-sulfonamide] was tested, and the inhibition at 5 min [1] was 50 to 75% and the IC50 [2] was ≤ 100 nM.

`O=C(c1cc(C(F)(F)F)ccn1)[C@]12Cc3cnn(-c4ccc(F)cc4)c3C=C1CC[C@H](N(C1CC1)S(=O)(=O)c1ccc(Cl)nc1)C2` [Example 223, 6-chloro-N-cyclopropyl-N-((4aS,6S)-1-(4-fluorophenyl)-4a-(4-(trifluoromethyl)picolinoyl)-4,4a,5,6,7,8-hexahydro-1H-benzo[f]indazol-6-yl)pyridine-3-sulfonamide] was tested, and the inhibition at 5 min [1] was 25 to 50% and the IC50 [2] was ≤ 100 nM.

For `Cn1ccc(S(=O)(=O)N(C2CC2)[C@H]2CCC3=Cc4c(cnn4-c4ccc(F)cc4)C[C@]3(C(=O)c3cc(F)ccn3)C2)n1` [Example 224, N-cyclopropyl-N-((4aS,6S)-1-(4-fluorophenyl)-4a-(4-fluoropicolinoyl)-4,4a,5,6,7,8-hexahydro-1H-benzo[f]indazol-6-yl)-1-methyl-1H-pyrazole-3-sulfonamide], the inhibition at 5 min [1] was 25 to 50% and the IC50 [2] was ≤ 100 nM.

With `Cn1ccc(S(=O)(=O)N(C2CC2)[C@H]2CCC3=Cc4c(cnn4-c4ccc(F)cc4)C[C@]3(C(=O)c3cc(Cl)ccn3)C2)n1` [Example 225, N-((4aS,6S)-4a-(4-chloropicolinoyl)-1-(4-fluorophenyl)-4,4a,5,6,7,8-hexahydro-1H-benzo[f]indazol-6-yl)-N-cyclopropyl-1-methyl-1H-pyrazole-3-sulfonamide] the inhibition at 5 min [1] was 50 to 75% and the IC50 [2] was ≤ 100 nM.

For `Cn1cnc(S(=O)(=O)N(C2CCC2)[C@H]2CCC3=Cc4c(cnn4-c4ccc(F)cc4)C[C@]3(C(=O)c3cc(C(F)(F)F)ccn3)C2)c1` [Example 226, N-cyclobutyl-N-((4aS,6S)-1-(4-fluorophenyl)-4a-(4-(trifluoromethyl)picolinoyl)-4,4a,5,6,7,8-hexahydro-1H-benzo[f]indazol-6-yl)-1-methyl-1H-imidazole-4-sulfonamide], the inhibition at 5 min [1] was 50 to 75% and the IC50 [2] was ≤ 100 nM.

With `O=C(c1cc(F)ccn1)[C@]12Cc3cnn(-c4ccc(F)cc4)c3C=C1CC[C@H](N(C1CC1)S(=O)(=O)c1ccc(F)cc1)C2` [Example 228, N-cyclopropyl-4-fluoro-N-((4aS,6S)-1-(4-fluorophenyl)-4a-(4-fluoropicolinoyl)-4,4a,5,6,7,8-hexahydro-1H-benzo[f]indazol-6-yl)benzenesulfonamide] the inhibition at 5 min [1] was 50 to 75% and the IC50 [2] was ≤ 100 nM.

For `Cn1cc(S(=O)(=O)N(CC2CC2)[C@H]2CCC3=Cc4c(cnn4-c4ccc(F)cc4)C[C@]3(C(=O)c3cc(C(F)(F)F)ccn3)C2)nn1` [Example 229, N-(cyclopropylmethyl)-N-((4aS,6S)-1-(4-fluorophenyl)-4a-(4-(trifluoromethyl)picolinoyl)-4,4a,5,6,7,8-hexahydro-1H-benzo[f]indazol-6-yl)-1-methyl-1H-1,2,3-triazole-4-sulfonamide], the inhibition at 5 min [1] was 50 to 75% and the IC50 [2] was ≤ 100 nM.

`Cn1cc(S(=O)(=O)N(C2CCC2)[C@H]2CCC3=Cc4c(cnn4-c4ccc(F)cc4)C[C@]3(C(=O)c3cc(C(F)(F)F)ccn3)C2)nn1` [Example 230, N-cyclobutyl-N-((4aS,6S)-1-(4-fluorophenyl)-4a-(4-(trifluoromethyl)picolinoyl)-4,4a,5,6,7,8-hexahydro-1H-benzo[f]indazol-6-yl)-1-methyl-1H-1,2,3-triazole-4-sulfonamide] was tested, and the inhibition at 5 min [1] was 50 to 75% and the IC50 [2] was ≤ 100 nM.

`CCN([C@H]1CCC2=Cc3c(cnn3-c3ccc(F)cc3)C[C@]2(C(=O)c2cc(C(F)(F)F)ccn2)C1)S(=O)(=O)c1cn(C)nn1` [Example 231, N-ethyl-N-((4aS,6S)-1-(4-fluorophenyl)-4a-(4-(trifluoromethyl)picolinoyl)-4,4a,5,6,7,8-hexahydro-1H-benzo[f]indazol-6-yl)-1-methyl-1H-1,2,3-triazole-4-sulfonamide] was tested, and the inhibition at 5 min [1] was 25 to 50% and the IC50 [2] was ≤ 100 nM.

In the case of `CC(C)N([C@H]1CCC2=Cc3c(cnn3-c3ccc(F)cc3)C[C@]2(C(=O)c2ncc(C(F)(F)F)s2)C1)S(=O)(=O)c1cnn(C)n1` [Example 233, N-((4aS,6S)-1-(4-fluorophenyl)-4a-(5-(trifluoromethyl)thiazole-2-carbonyl)-4,4a,5,6,7,8-hexahydro-1H-benzo[f]indazol-6-yl)-N-isopropyl-2-methyl-2H-1,2,3-triazole-4-sulfonamide], the inhibition at 5 min [1] is reported as 75 to 90% and the IC50 [2] is reported as ≤ 100 nM.

With `CC(C)N([C@H]1CCC2=Cc3c(cnn3-c3ccc(F)cc3)C[C@]2(C(=O)c2cc(C(F)(F)F)ccn2)C1)S(=O)(=O)c1cnn(C)n1` [Example 234, N-((4aS,6S)-1-(4-fluorophenyl)-4a-(4-(trifluoromethyl)picolinoyl)-4,4a,5,6,7,8-hexahydro-1H-benzo[f]indazol-6-yl)-N-isopropyl-2-methyl-2H-1,2,3-triazole-4-sulfonamide] the inhibition at 5 min [1] was 75 to 90% and the IC50 [2] was ≤ 100 nM.

For `Cn1ncc(S(=O)(=O)N(CC(C)(C)O)[C@H]2CCC3=Cc4c(cnn4-c4ccc(F)cc4)C[C@]3(C(=O)c3ncc(C(F)(F)F)s3)C2)n1` [Example 236, N-((4aS,6S)-1-(4-fluorophenyl)-4a-(5-(trifluoromethyl)thiazole-2-carbonyl)-4,4a,5,6,7,8-hexahydro-1H-benzo[f]indazol-6-yl)-N-(2-hydroxy-2-methylpropyl)-2-methyl-2H-1,2,3-triazole-4-sulfonamide], the inhibition at 5 min [1] was 50 to 75% and the IC50 [2] was ≤ 100 nM.

With `CC(C)N([C@H]1CCC2=Cc3c(cnn3-c3ccc(F)cc3)C[C@]2(C(=O)c2cc(F)ccn2)C1)S(=O)(=O)c1ccn(C)n1` [Example 241, N-((4aS,6S)-1-(4-fluorophenyl)-4a-(4-fluoropicolinoyl)-4,4a,5,6,7,8-hexahydro-1H-benzo[f]indazol-6-yl)-N-isopropyl-1-methyl-1H-pyrazole-3-sulfonamide] the inhibition at 5 min [1] was 75 to 90% and the IC50 [2] was ≤ 100 nM.

For `CC(C)N([C@H]1CCC2=Cc3c(cnn3-c3ccc(F)cc3)C[C@]2(C(=O)c2cc(Cl)ccn2)C1)S(=O)(=O)c1ccn(C)n1` [Example 242, N-((4aS,6S)-4a-(4-chloropicolinoyl)-1-(4-fluorophenyl)-4,4a,5,6,7,8-hexahydro-1H-benzo[f]indazol-6-yl)-N-isopropyl-1-methyl-1H-pyrazole-3-sulfonamide], the inhibition at 5 min [1] was 75 to 90% and the IC50 [2] was ≤ 100 nM.
